# Measured values reported in patent US11623932B2, “Protein degraders and uses thereof” (Kymera Therapeutics, Inc., priority 2017, dated 2023).
# What was measured:
# [1] = target: BRD4 (Homo sapiens (Human), UniProt O60885); test: BRD4 degradation in NAMALWA cells, Western Blot; assay type: cell-based; conditions: 2 h
# [2] = target: Untagged CRBN-DDB1 complex (Homo sapiens (Human), UniProt Q96SW2); test: Fluorescence polarization (FP) assay, displacement of Cy5-labeled thalidomide; assay type: binding; conditions: Cy5-labeled thalidomide 20 nM, 10 min at room temperature
# Untagged CRBN-DDB1 complex, sequence (Q96SW2 whole entry): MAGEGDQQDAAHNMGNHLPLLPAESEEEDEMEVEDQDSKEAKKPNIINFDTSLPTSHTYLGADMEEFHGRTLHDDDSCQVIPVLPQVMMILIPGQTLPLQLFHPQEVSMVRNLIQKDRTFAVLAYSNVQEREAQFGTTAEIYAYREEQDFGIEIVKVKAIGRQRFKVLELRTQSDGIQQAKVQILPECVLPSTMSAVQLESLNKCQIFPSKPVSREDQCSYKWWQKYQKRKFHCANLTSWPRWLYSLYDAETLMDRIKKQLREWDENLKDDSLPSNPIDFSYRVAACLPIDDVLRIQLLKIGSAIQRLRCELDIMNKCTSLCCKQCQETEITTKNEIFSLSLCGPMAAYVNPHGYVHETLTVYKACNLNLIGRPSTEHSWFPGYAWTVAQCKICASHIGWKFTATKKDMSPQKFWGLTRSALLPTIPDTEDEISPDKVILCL
# Untagged CRBN-DDB1 complex, sequence (Q16531 whole entry partner): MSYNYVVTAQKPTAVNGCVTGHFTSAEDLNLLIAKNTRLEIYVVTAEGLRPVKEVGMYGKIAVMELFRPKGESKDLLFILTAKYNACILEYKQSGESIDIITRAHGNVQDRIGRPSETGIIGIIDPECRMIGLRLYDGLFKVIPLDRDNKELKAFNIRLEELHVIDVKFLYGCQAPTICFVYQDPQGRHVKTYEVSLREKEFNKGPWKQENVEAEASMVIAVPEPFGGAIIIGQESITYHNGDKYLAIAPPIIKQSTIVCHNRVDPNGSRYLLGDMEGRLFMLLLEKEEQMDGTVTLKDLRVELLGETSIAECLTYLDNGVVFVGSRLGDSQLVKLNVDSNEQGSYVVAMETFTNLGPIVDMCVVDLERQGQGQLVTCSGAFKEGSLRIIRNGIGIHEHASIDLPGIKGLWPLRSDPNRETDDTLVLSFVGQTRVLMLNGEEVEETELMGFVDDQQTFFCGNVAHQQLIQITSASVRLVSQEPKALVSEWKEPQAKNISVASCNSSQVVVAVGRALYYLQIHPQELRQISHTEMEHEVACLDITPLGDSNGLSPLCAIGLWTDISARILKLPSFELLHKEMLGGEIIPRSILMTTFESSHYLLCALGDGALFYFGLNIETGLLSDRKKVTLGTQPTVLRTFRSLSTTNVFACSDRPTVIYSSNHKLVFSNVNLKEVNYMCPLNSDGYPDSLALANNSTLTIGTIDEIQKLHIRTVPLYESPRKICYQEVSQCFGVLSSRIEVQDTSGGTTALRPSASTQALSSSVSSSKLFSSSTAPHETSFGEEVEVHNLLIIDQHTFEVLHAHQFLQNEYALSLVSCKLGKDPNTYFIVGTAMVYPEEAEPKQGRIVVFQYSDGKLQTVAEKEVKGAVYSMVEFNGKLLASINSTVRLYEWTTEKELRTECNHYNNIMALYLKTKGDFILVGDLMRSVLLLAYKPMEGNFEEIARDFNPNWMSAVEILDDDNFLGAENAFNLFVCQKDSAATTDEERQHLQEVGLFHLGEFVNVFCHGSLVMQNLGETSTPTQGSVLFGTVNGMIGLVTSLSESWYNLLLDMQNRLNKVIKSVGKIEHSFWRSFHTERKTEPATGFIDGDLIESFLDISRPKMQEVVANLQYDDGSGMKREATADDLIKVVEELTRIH
# Procedure: The final solution contained 50 mM HEPES, 200 mM NaCl and 2 mM DTT, pH 7.5. The mixtures were incubated at room temperature for 10 min. The FP signals were recorded on an EnVision plate reader (Perkin Elmer) using the following settings: Excitation Light (%): 100; Measurement Height: 12; G-Factor: 1; Detector Gain 1: 500; Detector Gain 2: 500; Flash Number: 100. Dose-dependent loss of FP signals was fitted by four-parameter Logistic Function using GraphPad Prism 7.0 and the IC50 values were reported for each compound.
# The compound numbers correspond to the compound numbers in the examples.
Structure (SMILES),% BRD4 degradation ([1]; 0.0003 uM),% BRD4 degradation ([1]; 0.001 uM),IC50 [2],% BRD4 degradation ([1]; 0.003 uM),% BRD4 degradation ([1]; 0.01 uM),% BRD4 degradation ([1]; 0.03 uM),% BRD4 degradation ([1]; 0.1 uM),% BRD4 degradation ([1]; 0.3 uM),% BRD4 degradation ([1]; 1 uM)
"Cc1sc2c(c1C)C(c1ccc(Cl)cc1)=N[C@@H](CC(=O)NCCOCCOCCn1c(=O)n(C3CCC(=O)NC3=O)c3ccccc31)c1nnc(C)n1-2 (stereo partly drawn) [Compound I-38, 2-((S)-4-(4-chlorophenyl)-2,3,9-trimethyl-6H-thieno[3,2-f][1,2,4]triazolo[4,3-a][1,4]diazepin-6-yl)-N-(2-(2-(2-(3-(2,6-dioxopiperidin-3-yl)-2-oxo-2,3-dihydro-1H-benzo[d]imidazol-1-yl)ethoxy)ethoxy)ethyl)acetamide]",D (less than 40 percent protein degradation),B (60 to 80 percent protein degradation),,A (greater than 80 percent protein degradation),A (greater than 80 percent protein degradation),A (greater than 80 percent protein degradation),A (greater than 80 percent protein degradation),A (greater than 80 percent protein degradation),A (greater than 80 percent protein degradation)
"O=C1CCC(N2C(=O)Cc3ccccc32)C(=O)N1 (stereo not drawn) [Compound 3, 3-(2-Oxo-2,3-dihydro-1H-indol-1-yl)piperidine-2,6-dione]",,,> 100 µM,,,,,,
"Cc1sc2c(c1C)C(c1ccc(Cl)cc1)=N[C@@H](CC(=O)NCCOCCOCCCc1ccc3c(c1)n(C)c(=O)n3C1CCC(=O)NC1=O)c1nnc(C)n1-2 (stereo partly drawn) [Compound I-35, 2-((S)-4-(4-chlorophenyl)-2,3,9-trimethyl-6H-thieno[3,2-f][1,2,4]triazolo[4,3-a][1,4]diazepin-6-yl)-N-(2-(2-(3-(1-(2,6-dioxopiperidin-3-yl)-3-methyl-2-oxo-2,3-dihydro-1H-benzo[d]imidazol-5-yl)propoxy)ethoxy)ethyl)acetamide]",B (60 to 80 percent protein degradation),A (greater than 80 percent protein degradation),,A (greater than 80 percent protein degradation),A (greater than 80 percent protein degradation),A (greater than 80 percent protein degradation),A (greater than 80 percent protein degradation),A (greater than 80 percent protein degradation),A (greater than 80 percent protein degradation)

# Continued, in another order:
% BRD4 degradation ([1]; 0.0003 uM),% BRD4 degradation ([1]; 0.001 uM),IC50 [2],Structure (SMILES),% BRD4 degradation ([1]; 0.003 uM),% BRD4 degradation ([1]; 0.01 uM),% BRD4 degradation ([1]; 0.03 uM),% BRD4 degradation ([1]; 0.1 uM),% BRD4 degradation ([1]; 0.3 uM),% BRD4 degradation ([1]; 1 uM)
B (60 to 80 percent protein degradation),B (60 to 80 percent protein degradation),,"Cc1sc2c(c1C)C(c1ccc(Cl)cc1)=N[C@@H](CC(=O)NCCOCCOCCOCCn1c(=O)n(C3CCC(=O)NC3=O)c3ccccc31)c1nnc(C)n1-2 (stereo partly drawn) [Compound I-37, 2-((S)-4-(4-Chlorophenyl)-2,3,9-trimethyl-6H-thieno[3,2-f][1,2,4]triazolo[4,3-a][1,4]diazepin-6-yl)-N-(2-(2-(2-(2-(3-(2,6-dioxopiperidin-3-yl)-2-oxo-2,3-dihydro-1H-benzo[d]imidazol-1-yl)ethoxy)ethoxy)ethoxy)ethyl)acetamide]",A (greater than 80 percent protein degradation),A (greater than 80 percent protein degradation),A (greater than 80 percent protein degradation),A (greater than 80 percent protein degradation),A (greater than 80 percent protein degradation),A (greater than 80 percent protein degradation)
C (40 to 60 percent protein degradation),C (40 to 60 percent protein degradation),,"Cc1sc2c(c1C)C(c1ccc(Cl)cc1)=N[C@@H](CC(=O)NCCOCCOCCCc1cccc3c1n(C)c(=O)n3C1CCC(=O)NC1=O)c1nnc(C)n1-2 (stereo partly drawn) [Compound I-36, 2-((S)-4-(4-chlorophenyl)-2,3,9-trimethyl-6H-thieno[3,2-f][1,2,4]triazolo[4,3-a][1,4]diazepin-6-yl)-N-(2-(2-(3-(1-(2,6-dioxopiperidin-3-yl)-3-methyl-2-oxo-2,3-dihydro-1H-benzo[d]imidazol-4-yl)propoxy)ethoxy)ethyl)acetamide]",C (40 to 60 percent protein degradation),C (40 to 60 percent protein degradation),B (60 to 80 percent protein degradation),B (60 to 80 percent protein degradation),B (60 to 80 percent protein degradation),B (60 to 80 percent protein degradation)
